According to patent US20230055237A1, “COMPOUNDS AND METHODS FOR THE TREATMENT OF CYSTIC FIBROSIS” (Flatley Discovery Lab, LLC, priority 2019, published 2023):

Biological target: T1, CFTR (Homo sapiens, UniProt P13569, DEL508-508)
T1 construct: Primary CF airway epithelial cells were obtained from the UNC Cystic Fibrosis Tissue Procurement and Cell Culture Core; host or cells: primary CF airway epithelial cells, differentiated at the air-liquid interface
Test: Equivalent current assay in primary CF airway epithelial cells (NAUC, combination with 1st site corrector FDL169 or VX-809)
Type: cell-based
Settings: 37° C., 24 h; for Nauc @ 10 μM: test compound 10 μM in combination with 1st site corrector VX-809 (3 μM)

[1] = test compound 1 μM in combination with 1st site corrector VX-809 (3 μM)
[2] = test compound 3 μM in combination with 1st site corrector VX-809 (3 μM)

T1 sequence (P13569 with tags, fused parts or gaps DEL508-508): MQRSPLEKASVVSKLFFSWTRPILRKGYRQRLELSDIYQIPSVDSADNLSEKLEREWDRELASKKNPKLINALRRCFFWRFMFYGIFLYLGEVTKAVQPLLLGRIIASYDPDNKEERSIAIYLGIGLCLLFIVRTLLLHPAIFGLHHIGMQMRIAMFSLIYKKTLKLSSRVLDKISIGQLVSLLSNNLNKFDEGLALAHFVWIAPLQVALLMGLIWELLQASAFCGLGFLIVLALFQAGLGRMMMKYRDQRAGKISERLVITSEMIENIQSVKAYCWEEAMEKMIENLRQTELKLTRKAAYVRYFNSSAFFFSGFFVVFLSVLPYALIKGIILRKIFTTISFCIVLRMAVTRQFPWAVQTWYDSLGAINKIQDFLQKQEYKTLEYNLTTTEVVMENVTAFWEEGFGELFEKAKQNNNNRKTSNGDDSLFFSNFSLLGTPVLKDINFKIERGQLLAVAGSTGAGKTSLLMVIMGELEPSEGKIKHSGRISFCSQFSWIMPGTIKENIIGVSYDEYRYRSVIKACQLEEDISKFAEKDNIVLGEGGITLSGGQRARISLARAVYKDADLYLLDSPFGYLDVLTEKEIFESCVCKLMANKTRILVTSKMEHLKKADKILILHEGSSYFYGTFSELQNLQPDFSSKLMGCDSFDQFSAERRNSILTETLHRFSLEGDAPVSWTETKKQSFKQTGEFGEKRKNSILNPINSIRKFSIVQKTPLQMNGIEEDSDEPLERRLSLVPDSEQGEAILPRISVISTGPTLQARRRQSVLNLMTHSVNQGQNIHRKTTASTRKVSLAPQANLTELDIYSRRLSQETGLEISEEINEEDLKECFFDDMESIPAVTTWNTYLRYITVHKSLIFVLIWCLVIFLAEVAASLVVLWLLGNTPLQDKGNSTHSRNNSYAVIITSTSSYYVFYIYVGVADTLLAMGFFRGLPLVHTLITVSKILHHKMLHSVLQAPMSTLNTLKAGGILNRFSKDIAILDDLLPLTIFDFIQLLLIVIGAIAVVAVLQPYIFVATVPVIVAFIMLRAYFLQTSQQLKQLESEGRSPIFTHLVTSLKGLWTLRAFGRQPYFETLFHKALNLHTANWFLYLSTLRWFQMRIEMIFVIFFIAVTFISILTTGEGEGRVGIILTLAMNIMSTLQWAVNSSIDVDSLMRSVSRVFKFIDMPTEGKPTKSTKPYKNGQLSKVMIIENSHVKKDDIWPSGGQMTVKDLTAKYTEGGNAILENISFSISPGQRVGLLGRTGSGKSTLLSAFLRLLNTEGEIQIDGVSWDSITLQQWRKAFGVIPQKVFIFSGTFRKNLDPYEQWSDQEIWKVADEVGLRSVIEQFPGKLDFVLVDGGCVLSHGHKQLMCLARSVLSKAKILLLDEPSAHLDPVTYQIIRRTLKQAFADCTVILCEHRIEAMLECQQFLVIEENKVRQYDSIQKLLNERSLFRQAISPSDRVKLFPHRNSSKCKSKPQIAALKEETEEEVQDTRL

Row | SMILES | Nauc @ 1 μM [1] | Nauc @ 3 μM [2] | Nauc @ 10 μM | Nauc @ 1 μM (test compound 1 μM in combination with 1st site corrector FDL169 (3 μM)) | Nauc @ 3 μM (test compound 3 μM in combination with 1st site corrector FDL169 (3 μM))
1 | CN(C)S(=O)(=O)NC(=O)C1C(C(=O)Nc2cc(Cl)cc(Cl)c2)C2C[C@](C)(O)CN2C12C(=O)Nc1c(Cl)cc(Cl)cc12 (stereo partly drawn) [Example 248, (6′S)-5,7-dichloro-N1′-(3,5-dichlorophenyl)-N2′-(N,N-dimethylsulfamoyl)-6′-hydroxy-6′-methyl-2-oxo-1′,2′,5′,6′,7′,7a′-hexahydrospiro[indoline-3,3′-pyrrolizine]-1,2′-dicarboxamide] | + (NAUC “+” refers to an observed NAUC <140% of positive control) | +++ (NAUC “+++” refers to an observed NAUC>170% of positive control) | +++ (NAUC “+++” refers to an observed NAUC>170% of positive control) |  | 
2 | Cn1cc(N(CC2CC2)C(=O)[C@H]2[C@H]3CC(F)(F)CN3[C@]3(C(=O)Nc4c(Cl)cc(Cl)cc43)[C@H]2C(=O)O)c(C(F)(F)F)n1 [Example 166] |  |  |  | + (NAUC “+” refers to an observed NAUC <140% of positive control) | + (NAUC “+” refers to an observed NAUC <140% of positive control)
3 | CN(C(=O)C1C2N(CCC2(F)F)C2(C(=O)Nc3c(Cl)cc(Cl)cc32)C1C(=O)O)c1cc(Cl)cc(Cl)c1 (single isomer, unassigned) [Example 268b, 5,7-dichloro-1′-((3,5-dichlorophenyl)(methyl)carbamoyl)-7′,7′-difluoro-2-oxo-1′,2′,5′,6′,7′,7a′-hexahydrospiro[indoline-3,3′-pyrrolizine]-2′-carboxylic acid] | +++ (NAUC “+++” refers to an observed NAUC>170% of positive control) | +++ (NAUC “+++” refers to an observed NAUC>170% of positive control) |  |  | 
4 | CN(C(=O)[C@H]1[C@@H](C(=O)NCC(F)(F)F)[C@]2(C(=O)Nc3c(Cl)cc(Cl)cc32)N2CC(F)(F)C[C@@H]12)c1cc(Cl)cc(Cl)c1 (single isomer, unassigned) [Example 232a] | + (NAUC “+” refers to an observed NAUC <140% of positive control) | + (NAUC “+” refers to an observed NAUC <140% of positive control) | + (NAUC “+” refers to an observed NAUC <140% of positive control) |  | 
5 | Cn1ccc(NC(=O)[C@H]2[C@@H](C(=O)Nc3cc(Cl)cc(Cl)c3)[C@H]3CCCN3[C@]23C(=O)Nc2c(Cl)cc(Cl)cc23)n1 (single isomer, unassigned) [Example 240, (1′R,2′S,7a′R)-5,7-dichloro-N1′-(3,5-dichlorophenyl)-N2′-(1-methyl-1H-pyrazol-3-yl)-2-oxo-1′,2′,5′,6′,7′,7a′-hexahydrospiro[indoline-3,3′-pyrrolizine]-1′,2′-dicarboxamide] | + (NAUC “+” refers to an observed NAUC <140% of positive control) | + (NAUC “+” refers to an observed NAUC <140% of positive control) | + (NAUC “+” refers to an observed NAUC <140% of positive control) |  | 
6 | CN(O)C(=O)C1C(C(=O)Nc2cc(Cl)cc(Cl)c2)C2CC(F)(F)CN2C12C(=O)Nc1c(Cl)cc(Cl)cc12 (single isomer, unassigned) [Example 225b, 5,7-dichloro-N1′-(3,5-dichlorophenyl)-6′,6′-difluoro-N2′-hydroxy-N2′-methyl-2-oxo-1′,2′,5′,6′,7′,7a′-hexahydrospiro[indoline-3,3′-pyrrolizine]-1′,2′-dicarboxamide] | + (NAUC “+” refers to an observed NAUC <140% of positive control) | +++ (NAUC “+++” refers to an observed NAUC>170% of positive control) | +++ (NAUC “+++” refers to an observed NAUC>170% of positive control) |  | 
7 | CN(C(=O)[C@H]1[C@H]2CC(F)(F)CN2C2(C(=O)Nc3c(Cl)cc(Cl)cc32)[C@H]1C(=O)O)c1cccc(C(F)(F)F)n1 (stereo partly shown) [Example 292] | ++ (NAUC “++” refers to an observed NAUC 170-140% of positive control) | +++ (NAUC “+++” refers to an observed NAUC>170% of positive control) | +++ (NAUC “+++” refers to an observed NAUC>170% of positive control) |  | 
